According to PMC4192545, “Suramin Inhibits Hsp104 ATPase and Disaggregase Activity” (PLoS ONE, 2014):
Several values for one entry are separate records, joined by “and”; a condition that tells them apart may be missing. Equal entries are not always repeated.

Experiments:
[1] = biological target: T1, Hsp104 (Saccharomyces cerevisiae, UniProt P31539); experiment: High-throughput Hsp104 ATPase plate assay (malachite green, 384-well); type: biochemical, yeast; conditions: 60 min
T1 construct: made in house; host or cells: E. coli BL21-DE3 RIL
T1 sequence (P31539 whole entry): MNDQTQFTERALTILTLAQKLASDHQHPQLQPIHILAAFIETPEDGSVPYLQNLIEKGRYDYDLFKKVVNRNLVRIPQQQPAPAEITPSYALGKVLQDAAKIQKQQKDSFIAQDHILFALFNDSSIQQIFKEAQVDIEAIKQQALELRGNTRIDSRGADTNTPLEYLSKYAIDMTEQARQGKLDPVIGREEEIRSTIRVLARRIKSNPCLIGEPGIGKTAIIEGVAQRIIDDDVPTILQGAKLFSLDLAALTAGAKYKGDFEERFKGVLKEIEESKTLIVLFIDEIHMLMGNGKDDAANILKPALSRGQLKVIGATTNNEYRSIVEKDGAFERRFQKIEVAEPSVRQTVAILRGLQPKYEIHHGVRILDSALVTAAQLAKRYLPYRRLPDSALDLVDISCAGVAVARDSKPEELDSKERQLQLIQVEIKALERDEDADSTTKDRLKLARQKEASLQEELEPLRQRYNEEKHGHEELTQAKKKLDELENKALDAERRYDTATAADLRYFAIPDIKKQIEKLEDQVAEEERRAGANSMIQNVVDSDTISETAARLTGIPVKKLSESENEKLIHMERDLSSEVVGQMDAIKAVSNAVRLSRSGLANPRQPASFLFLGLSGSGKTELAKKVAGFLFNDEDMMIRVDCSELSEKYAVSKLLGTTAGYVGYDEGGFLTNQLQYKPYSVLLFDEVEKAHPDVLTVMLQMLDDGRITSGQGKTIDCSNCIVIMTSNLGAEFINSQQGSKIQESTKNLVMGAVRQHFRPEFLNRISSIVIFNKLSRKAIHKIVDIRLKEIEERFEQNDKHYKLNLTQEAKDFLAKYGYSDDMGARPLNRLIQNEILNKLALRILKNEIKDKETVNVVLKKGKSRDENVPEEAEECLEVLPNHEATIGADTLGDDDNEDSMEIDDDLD
Protocol: ATPase activity was assessed by the release of inorganic phosphate determined using a malachite green phosphate detection kit (Innova Biosciences, Cambridge, United Kingdom). Microtiter plates (384-well) were purchased from PerkinElmer (Waltham, MA). Three libraries were screened: The NIH Clinical Collection (450 small molecules), the Spectrum Collection (2,000 compounds, MicroSource, Gaylordsville, CT) and the HitFinder Collection (14,400 compounds, Maybridge).
We adapted the inorganic phosphate colorimetric assay to fit a 384-well plate format. A Ź-factor between 0.8 and 1 was calculated for the assay. A 2X Hsp104 stock solution was dispensed into each well using a Biotek microflo (Biotek Instruments, Winooski, VT). Compounds were then transferred using a Janus 96/384 Modular Dispensing Tool (PerkinElmer). Finally, a 2X ATP solution was dispensed using the Biotek microflo. Final concentrations of Hsp104 (monomer) and ATP were 0.25 µM and 1 mM respectively. Seeking to avoid the discovery of competitive inhibitors, we designed our high-throughput screen to use a 100-fold excess of ATP with respect to the test compounds (10 µM each). Final buffer conditions were 20 mM HEPES-KOH pH 7.4, 20 mM NaCl and 10 mM MgCl2. The ATPase reaction was allowed to continue for 60 min, at which time the reaction was terminated by addition of the colorimetric reagent. Absorbance was measured at 635 nm on an EnVision Xcite Multilabel plate reader (PerkinElmer). Hits were tested in duplicate. […] Ten of these were subjected to a 6-point titration (40, 13.3, 4.44, 1.45, 0.49 and 0 µM) in the absence or presence of Triton X-100, BSA, or both Triton X-100 and BSA at the specified concentrations. Heat maps were created in Excel for Mac 2011 (Microsoft Corporation) using the Conditional Formatting feature (Color Scales).
We aimed to identify small molecules capable of inhibiting Hsp104. To do so, we employed high-throughput screening using Hsp104 ATPase activity as a proxy for function. To detect changes in Hsp104 ATPase activity, we used a colorimetric assay detecting free inorganic phosphate (Pi) based on the formation of a colored complex between Pi and a dye molecule under acidic conditions, [44]. Pi is produced from the Hsp104-driven hydrolysis of ATP. The colored complex concentration, a surrogate for Pi concentration and ATPase rate, is determined by measuring the absorbance of a sample at 635 nm. We used recombinant Hsp104 purified from E. coli. An Hsp104 mutant with mutations in both NBD1 and NBD2 Walker B sequence motifs (Hsp104^DWB, carrying ATPase ablating mutations E285Q: E687Q) was used as a negative control for ATPase activity. Hsp104^WT activity results in a high A635 (high ATPase), while Hsp104^DWB activity results in a low A635 (low ATPase). We optimized the Pi colorimetric assay to fit a 384-well plate format. We selected the Hsp104 concentration (0.25 µM) on the basis of previous experience in our laboratory. The ATP concentration was selected to be in a 100-fold excess of ATP with respect to the test compounds. […] We screened 16,850 compounds from the NIH Clinical Collection as well as the Spectrum and Maybridge compound libraries. […] For instance, hexachlorophene and tannic acid inhibit Hsp104 ATPase activity by ∼80%, while Merbromin and Sennoside a inhibit by ∼20% ( Table 1 ).

[2] = biological target: T1, Hsp104; experiment: Luciferase disaggregation/reactivation assay, Hsp104 with ATP:ATPγS; type: biochemical, yeast
Protocol: Luciferase reactivation was performed as described, [37]. To assemble aggregates, firefly luciferase (50 µM) in luciferase refolding buffer (LRB, 25 mM HEPES-KOH, 7.4, 150 mM KAOc, 10 mM MgAOc, 10 mM DTT) with 6 M urea was incubated at 30°C for 20 min. Luciferase was then rapidly diluted 100-fold into LRB, divided into 100 µL aliquots, snap frozen in liquid N2, and stored at −80°C. For reactivation assays, aggregated luciferase (50 nM) was incubated with Hsp104 (1 µM hexamer), plus 2.6 mM ATPγS, 2.6 mM ATP and an ATP regeneration system (1 mM creatine phosphate, 0.25 µM creatine kinase (Roche Applied Science)) for 90 minutes at 25°C. Luciferase assay system was purchased from Promega. Luciferase activity was assessed by luminescence measured on a Safire^2 microplate reader (Tecan, Männedorf, Switzerland). The half maximal inhibitory concentration (IC50) was calculating by fitting luciferase-refolding data at different Suramin concentrations with Prism (GraphPad Software, Inc., La Jolla, CA).

[3] = test system: HAP (Hsp104 variant) with ClpP; experiment: FITC-casein degradation (substrate translocation) assay; type: biochemical; conditions: 25°C
Protocol: FITC-casein (0.1 µM) was incubated with HAP (1 µM hexamer) and ClpP (21 µM monomer) at 25°C. ATP ([…]) and an ATP-regenerating system were included in all reactions. Varying concentrations of Suramin (0, 25, or 100 µM) were included as noted. We monitored degradation of FITC-casein by measuring fluorescence (excitation 490 nm, emission 520 nm) using a Tecan Safire^2 microplate reader (Tecan, Männedorf, Switzerland).
Next, we established that Suramin hampers substrate translocation by Hsp104 using an engineered Hsp104 variant, HAP, which anchors to the bacterial peptidase ClpP to form a novel proteolytic system. Thus, HAP translocates fluorescein isothiocyanate (FITC)-casein for degradation by ClpP. Fluorescence increases as FITC is released from degraded casein and can be used as a surrogate for substrate translocation. […] Note that both the unfolding and translocation activities appear less sensitive to Suramin than disaggregase activity ( Figures 3B , 4A and 4B ). Thus, disaggregation of protein aggregates makes more stringent demands on the Hsp104 hexamer than the unfolding or translocation of soluble substrates. Altogether, we have established that Suramin greatly decreases Hsp104 ATPase activity, drastically impairs its capacity to refold luciferase and hinders its substrate unfolding and translocation activities.

Cc1ccc(C(=O)Nc2ccc(S(=O)(=O)O)c3cc(S(=O)(=O)O)cc(S(=O)(=O)O)c23)cc1NC(=O)c1cccc(NC(=O)Nc2cccc(C(=O)Nc3cc(C(=O)Nc4ccc(S(=O)(=O)O)c5cc(S(=O)(=O)O)cc(S(=O)(=O)O)c45)ccc3C)c2)c1 [Suramin]
inhibition at 10 µM ([1]; 10 µM compound, Hsp104 0.25 µM monomer, ATP 1 mM, mean ±S.D. (n = 2), read-out: % Inhibition of Hsp104 ATP hydrolysis): 50.8 ± 2.83% | Inhibition of Hsp104 ATPase activity in the presence of both Triton X-100 and BSA ([1]; titration 40-0.49 µM, Triton X-100 and BSA, heat map Figure 1A): most significantly inhibit Hsp104 ATPase activity | Normalized Luciferase Refolding Activity ([2]; Figure 3D, Hsp104 alone (104), ATP:ATPγS 1:1, Suramin 25 µM): 0.14 | Normalized Luciferase Refolding Activity ([2]; Figure 3D, Hsp104 alone (104), ATP:ATPγS 1:1, Suramin 100 µM): 0.00 | Hsp104^WT refolding activity ([2]; Suramin 1 µM): 100% | Normalized Luciferase Refolding Activity ([2]; Suramin 1 µM, 90 min 25°C, ATP:ATPγS 1:1, Figure 3B): 0.99 | Normalized Luciferase Refolding Activity ([2]; Suramin 5 µM, 90 min 25°C, ATP:ATPγS 1:1, Figure 3B): 0.63 | Normalized Luciferase Refolding Activity ([2]; Suramin 10 µM, 90 min 25°C, ATP:ATPγS 1:1, Figure 3B): 0.50 | Normalized Luciferase Refolding Activity ([2]; Suramin 25 µM, 90 min 25°C, ATP:ATPγS 1:1, Figure 3B): 0.14 | Hsp104 refolding activity ([2]; Suramin 50 µM): practically inactive | Normalized Luciferase Refolding Activity ([2]; Suramin 50 µM, 90 min 25°C, ATP:ATPγS 1:1, Figure 3B): 0.03 | Effect on Hsp104 refolding of denatured luciferase ([2]; Suramin 100 µM): completely ablated the ability of Hsp104 to refold denatured luciferase | Normalized Luciferase Refolding Activity ([2]; Suramin 100 µM, 90 min 25°C, ATP:ATPγS 1:1, Figure 3B): 0.00 | IC50 ([2]; fit of luciferase-refolding data, ATP:ATPγS 1:1, read-out: IC50, Hsp104^WT luciferase refolding): ~10.1 µM and 10.1 µM | Effect on substrate translocation (FITC-casein degradation by HAP/ClpP) ([3]; Suramin 25 µM): permits translocation activity equivalent to that by untreated HAP in conjunction with ClpP | Effect on substrate translocation (FITC-casein degradation by HAP/ClpP) ([3]; Suramin 100 µM): completely abolished substrate translocation
